Patent publication US7041463B2, “Orthologues of human receptors and methods of use” (Pharmacopeia Drug Discovery, Inc., priority 2000, dated 2006)

Tests used:
cloned rat NK1 receptor = cloned rat NK1 receptor (Rattus norvegicus, UniProt P14600); conditions: cited from earlier work
[1] = biological target: T1, cholecystokinin-B receptor (Homo sapiens, UniProt P32239); conditions: human receptor with valine 319 substituted by leucine vs human receptor; cited from earlier work
T1 sequence (P32239 1-447 V349L): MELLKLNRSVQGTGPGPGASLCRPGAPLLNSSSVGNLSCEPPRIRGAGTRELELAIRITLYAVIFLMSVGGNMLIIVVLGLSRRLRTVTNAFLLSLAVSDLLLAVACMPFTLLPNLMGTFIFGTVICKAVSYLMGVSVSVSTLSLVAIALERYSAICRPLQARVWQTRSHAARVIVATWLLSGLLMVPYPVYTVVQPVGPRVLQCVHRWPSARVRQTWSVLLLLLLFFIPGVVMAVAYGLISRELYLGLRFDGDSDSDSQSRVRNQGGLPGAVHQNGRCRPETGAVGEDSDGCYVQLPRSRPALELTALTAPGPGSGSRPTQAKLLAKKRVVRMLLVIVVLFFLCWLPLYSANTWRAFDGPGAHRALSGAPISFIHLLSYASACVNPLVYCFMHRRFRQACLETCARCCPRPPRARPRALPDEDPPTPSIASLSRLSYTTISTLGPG

tree shrew B1 receptor = test: [3H]-des-Arg10-kallidin binding, 293E membranes, tree shrew B1; parameters: species or system tree shrew (Tupaia minor); conditions: 0.6 nM [3H]-dAKd
tree shrew B1 receptor, sequence (as listed by the source): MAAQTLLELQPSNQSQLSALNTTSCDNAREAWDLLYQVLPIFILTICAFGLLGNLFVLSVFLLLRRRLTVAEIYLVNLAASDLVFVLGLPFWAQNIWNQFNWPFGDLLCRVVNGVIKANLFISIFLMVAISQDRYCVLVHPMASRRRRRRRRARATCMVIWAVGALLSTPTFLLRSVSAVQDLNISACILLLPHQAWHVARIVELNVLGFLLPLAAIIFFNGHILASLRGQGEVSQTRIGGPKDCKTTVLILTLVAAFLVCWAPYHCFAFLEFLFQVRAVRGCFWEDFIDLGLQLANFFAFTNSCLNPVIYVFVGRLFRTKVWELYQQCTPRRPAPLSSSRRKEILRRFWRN
Method: (§1) Membrane preparations for use in accordance with the methods of the present invention were generated as follows. 293E cells expressing B1 receptors were harvested and pelleted. Cells were washed once with PBS and once with a membrane buffer (for example, 10 mM HEPES pH 7.5, 1 μM phosphoramidon, 3 μM amastatin, 1 μM captopril, 2 μM dithiothreitol (DTT)). Cells were resuspended in membrane buffer and Dounce homogenized on ice 35 times. The membranes were collected by centrifugation at 15,000×g for 30 min. at 4° C. and resuspended in membrane buffer containing 0.2% bovine serum albumin (BSA) at a final concentration of approximately 5×10^7 cell equivalents per ml. Aliquots were flash frozen and stored at −80° C. Frozen aliquots were subsequently thawed, diluted, and sonicated on ice using a Branson Sonifier® 250 (4×5 sec, 40% output).
(§2) Prior to use in a binding assay, a membrane preparation is “calibrated” as described below to determine the amount of membrane preparation to be used. […]
(§3) The method of the present invention employs a binding assay such as the one described below. […] 50 μl of scintillation fluid was added to each well and plates were counted in a Wallac Microbeta® TriLux for 10 min. per well.

dog B1 = biological target: T2, dog B1 (Canis lupus familiaris, UniProt Q9BDQ5, D322E/F324Y/R319K); test: [3H]-des-Arg10-kallidin binding, 293E membranes, dog B1 (canine/human chimera); conditions: 0.6 nM [3H]-dAKd
T2 construct: the chimeric canine/human receptor described above was used in the experiments described below; C-terminal cytoplasmic tail of human bradykinin B1 receptor (fusion partner of the chimera); expressed in transfected cells; host or cells: 293-EBNA (293E) cells, membranes
T2 sequence (Q9BDQ5 with tags, fused parts or gaps R319K/D322E/F324Y): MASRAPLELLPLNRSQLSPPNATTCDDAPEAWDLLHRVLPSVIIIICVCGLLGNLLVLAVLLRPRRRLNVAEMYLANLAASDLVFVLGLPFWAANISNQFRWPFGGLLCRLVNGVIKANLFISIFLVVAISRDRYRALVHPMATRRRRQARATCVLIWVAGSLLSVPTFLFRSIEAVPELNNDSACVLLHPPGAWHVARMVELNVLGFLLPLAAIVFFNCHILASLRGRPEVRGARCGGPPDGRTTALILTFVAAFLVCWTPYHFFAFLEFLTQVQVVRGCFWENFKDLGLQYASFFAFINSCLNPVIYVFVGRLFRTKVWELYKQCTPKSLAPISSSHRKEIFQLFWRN
Description: Additionally, a canine/human chimeric bradykinin B1 receptor comprising amino acids 1 to 320 of the canine sequence and amino acids 319–353 of human bradykinin B1 receptor was generated. Any number of chimeric molecules, for example, a chimera comprising amino acids 1–315 of the canine sequence and amino acids 314–353 of the human sequence can be used.
as §1, with “Frozen aliquots were subsequently thawed, diluted, and sonicated on ice using a Branson Sonifier® 250 (4×5 sec, 40% output).” left out
as §3

[2] = biological target: rhesus macaque B1 receptor; test: [3H]-des-Arg10-kallidin binding, 293E membranes, rhesus macaque B1; parameters: species or system rhesus macaque (Macaca mulatta); conditions: 0.6 nM [3H]-dAKd
rhesus macaque B1 receptor, sequence (as listed by the source): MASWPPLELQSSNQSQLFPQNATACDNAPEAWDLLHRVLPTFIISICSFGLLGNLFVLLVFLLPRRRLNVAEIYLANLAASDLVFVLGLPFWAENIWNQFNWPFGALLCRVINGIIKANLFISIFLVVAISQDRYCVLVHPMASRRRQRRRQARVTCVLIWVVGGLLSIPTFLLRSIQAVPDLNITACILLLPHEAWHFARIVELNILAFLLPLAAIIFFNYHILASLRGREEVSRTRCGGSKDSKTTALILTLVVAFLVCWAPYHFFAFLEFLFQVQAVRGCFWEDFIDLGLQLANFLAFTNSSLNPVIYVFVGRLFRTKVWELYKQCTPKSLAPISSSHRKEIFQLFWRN
Method: as §1, §2, §3

pig B1 = test: [3H]-des-Arg10-kallidin binding, 293E membranes, pig B1; conditions: 0.6 nM [3H]-dAKd
pig B1, sequence (as listed by the source): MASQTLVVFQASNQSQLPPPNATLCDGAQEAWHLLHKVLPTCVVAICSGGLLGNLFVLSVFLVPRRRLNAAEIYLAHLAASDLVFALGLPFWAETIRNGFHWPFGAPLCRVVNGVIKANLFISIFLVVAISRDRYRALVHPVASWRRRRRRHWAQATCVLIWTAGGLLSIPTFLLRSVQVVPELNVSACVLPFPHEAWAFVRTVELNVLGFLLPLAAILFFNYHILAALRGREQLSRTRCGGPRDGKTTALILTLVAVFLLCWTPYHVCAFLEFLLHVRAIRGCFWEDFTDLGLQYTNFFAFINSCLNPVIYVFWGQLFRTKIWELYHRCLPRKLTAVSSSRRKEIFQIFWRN
Method: as §1, §2, §3

rabbit B1 = biological target: T3, rabbit B1 (Oryctolagus cuniculus, UniProt P48748); test: [3H]-des-Arg10-kallidin binding, 293E membranes, rabbit B1; conditions: 0.6 nM [3H]-dAKd
T3 construct: expressed in transfected cells; host or cells: 293-EBNA (293E) cells, membranes
T3 sequence (P48748 1-352): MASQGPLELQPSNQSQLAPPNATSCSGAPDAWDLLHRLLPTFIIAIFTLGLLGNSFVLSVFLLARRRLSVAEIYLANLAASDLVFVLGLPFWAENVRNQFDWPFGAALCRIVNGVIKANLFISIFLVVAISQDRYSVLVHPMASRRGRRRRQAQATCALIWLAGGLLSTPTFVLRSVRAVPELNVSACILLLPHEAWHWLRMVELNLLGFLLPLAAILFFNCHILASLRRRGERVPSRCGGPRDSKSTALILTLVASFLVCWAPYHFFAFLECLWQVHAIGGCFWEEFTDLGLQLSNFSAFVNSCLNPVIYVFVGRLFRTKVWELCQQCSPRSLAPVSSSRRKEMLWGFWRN
Method: as §1, §2, §3

human B1 receptor = biological target: T4, human B1 receptor (Homo sapiens, UniProt P46663); test: [3H]-des-Arg10-kallidin binding, 293E membranes, human B1; conditions: 0.6 nM [3H]-dAKd
T4 construct: expressed in transfected cells; host or cells: 293-EBNA (293E) cells, membranes
T4 sequence (P46663 1-353): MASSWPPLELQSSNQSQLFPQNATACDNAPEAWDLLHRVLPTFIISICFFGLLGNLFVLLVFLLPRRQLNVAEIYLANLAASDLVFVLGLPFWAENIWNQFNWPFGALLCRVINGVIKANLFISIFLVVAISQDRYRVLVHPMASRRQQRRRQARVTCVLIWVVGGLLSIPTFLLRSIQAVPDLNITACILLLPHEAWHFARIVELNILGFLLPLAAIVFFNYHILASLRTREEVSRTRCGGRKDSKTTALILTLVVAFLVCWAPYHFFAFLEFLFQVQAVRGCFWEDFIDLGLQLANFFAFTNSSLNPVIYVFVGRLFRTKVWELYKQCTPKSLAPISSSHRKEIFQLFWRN
Description: Prior to use in a binding assay, a membrane preparation is “calibrated” as described below to determine the amount of membrane preparation to be used. A frozen sample of a membrane preparation is thawed and the preparation diluted in assay buffer to obtain several different concentrations of membranes, for example, 1:5, 1:10, 1:20, 1:40 and so on. The diluted membrane preparation is sonicated in a bath style sonicator for 15 seconds at room temperature. […]

cloned rat NK1 receptor, sequence (P14600 whole entry): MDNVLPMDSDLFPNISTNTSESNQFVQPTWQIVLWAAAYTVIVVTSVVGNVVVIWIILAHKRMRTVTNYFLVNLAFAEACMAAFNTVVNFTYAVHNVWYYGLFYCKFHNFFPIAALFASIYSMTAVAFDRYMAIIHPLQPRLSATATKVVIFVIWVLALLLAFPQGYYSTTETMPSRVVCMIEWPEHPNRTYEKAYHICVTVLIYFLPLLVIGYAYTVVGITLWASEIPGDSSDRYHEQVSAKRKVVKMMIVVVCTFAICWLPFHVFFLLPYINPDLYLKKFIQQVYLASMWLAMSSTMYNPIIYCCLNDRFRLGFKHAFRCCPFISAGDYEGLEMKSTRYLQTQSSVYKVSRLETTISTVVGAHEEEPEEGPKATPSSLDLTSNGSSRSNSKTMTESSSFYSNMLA

In the case of `COc1ccccc1CN[C@H]1C2CCN(CC2)[C@H]1C(c1ccccc1)c1ccccc1` [CP-96,345], the IC50 (cloned rat NK1 receptor) is listed as 40 nM.

In the case of `Cc1cccc(NC(=O)N[C@@H]2N=C(c3ccccc3)c3ccccc3N(C)C2=O)c1` [Compound L365260], the “decrease of binding affinity” value [1] is given as 20 fold.

In the case of [des-Arg^9]BK (RPPGFSPF) [dABk], the “affinity (K1) at tree shrew B1, in words” value (tree shrew B1 receptor) is reported as “inactivity”, the “affinity (K1) at dog B1, in words” value (dog B1) is reported as “low nM potency” and the “affinity (K1) at rhesus macaque B1, in words” value [2] is reported as “inactivity”. For the same compound, the “affinity (K1) at pig B1, in words” value (pig B1) was “weak activity”, the “affinity (K1) at rabbit B1, in words” value (rabbit B1) was “weak activity” and the “affinity (K1) at human B1, in words” value (human B1 receptor) was “inactivity”.
